PubChem BioAssay AID248 (DTP/NCI, 2004)
Several values for one entry are separate records, joined by “and”; a condition that tells them apart may be missing. Equal entries are not always repeated. Toxic doses and inconclusive results are not listed. No stated cut-off is given here; in the data, active means T/C of 150% or more; inactive means T/C below 125%.

Tested on: L1210 leukemia ip in BDF1 mice, survival T/C
Test: NCI In Vivo Anticancer Drug Screen. Data for tumor model L1210 Leukemia (intraperitoneal) in B6D2F1 (BDF1) mice
Settings: endpoint: mean survival time, higher = longer survival
Procedure, shortened: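 Transplanted-tumor mice were given test agent; controls received vehicle only. Survival readings from the two groups were divided (treated over control).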

[1] = dose: 25.0 mg/kg/injection, schedule: Q04DX002 (ip), vehicle: Klucel (hydroxypropylcellulose) (HPC)
[2] = dose: 50.0 mg/kg/injection, schedule: Q04DX002 (ip), vehicle: Klucel (hydroxypropylcellulose) (HPC)
[3] = dose: 100.0 mg/kg/injection, schedule: Q01DX001 (ip), vehicle: saline
[4] = dose: 200.0 mg/kg/injection, schedule: Q01DX001 (ip), vehicle: saline
[5] = dose: 400.0 mg/kg/injection, schedule: Q01DX001 (ip), vehicle: saline
[6] = dose: 200.0 mg/kg/injection, schedule: Q01DX009 (ip), vehicle: saline with Tween-80
[7] = dose: 400.0 mg/kg/injection, schedule: Q01DX009 (ip), vehicle: saline with Tween-80
[8] = dose: 100.0 mg/kg/injection, schedule: Q04DX003 (ip), vehicle: saline with Tween-80
[9] = dose: 200.0 mg/kg/injection, schedule: Q04DX003 (ip), vehicle: saline with Tween-80
[10] = dose: 400.0 mg/kg/injection, schedule: Q04DX003 (ip), vehicle: saline with Tween-80
[11] = dose: 100.0 mg/kg/injection, schedule: Q04DX002 (ip), vehicle: Klucel (hydroxypropylcellulose) (HPC)
[12] = dose: 200.0 mg/kg/injection, schedule: Q04DX002 (ip), vehicle: Klucel (hydroxypropylcellulose) (HPC)
[13] = dose: 400.0 mg/kg/injection, schedule: Q04DX002 (ip), vehicle: Klucel (hydroxypropylcellulose) (HPC)
[14] = dose: 100.0 mg/kg/injection, schedule: Q01DX009 (ip), vehicle: saline with Tween-80
[15] = dose: 100.0 mg/kg/injection, schedule: Q01DX009 (ip), vehicle: Klucel (hydroxypropylcellulose) (HPC)
[16] = dose: 200.0 mg/kg/injection, schedule: Q01DX009 (ip), vehicle: Klucel (hydroxypropylcellulose) (HPC)

Measured: T/C

COc1cc(Cl)ccc1N=CC(=O)c1ccc(C)cc1
inactive: dose: 12.5 mg/kg/injection, schedule: Q04DX002 (ip), vehicle: Klucel (hydroxypropylcellulose) (HPC) 94 % of control | [1] 87 % of control | [2] 115 % of control

CN1CCc2[nH]c3ccccc3c2C1
inactive: dose: 75.0 mg/kg/injection, schedule: Q04DX003 (ip), vehicle: Klucel (hydroxypropylcellulose) (HPC) 93 % of control | dose: 150.0 mg/kg/injection, schedule: Q04DX003 (ip), vehicle: Klucel (hydroxypropylcellulose) (HPC) 93 % of control

Cn1c(=S)[nH]c2cc(Cl)c(Cl)cc21
inactive: dose: 100.0 mg/kg/injection, schedule: Q04DX003 (ip), vehicle: saline 100 % of control | dose: 200.0 mg/kg/injection, schedule: Q04DX003 (ip), vehicle: saline 105 % of control | dose: 400.0 mg/kg/injection, schedule: Q04DX003 (ip), vehicle: saline 97 % of control

Cc1ccc(Nc2ccc(O)c3c2C(=O)c2ccccc2C3=O)c(Br)c1
inactive: dose: 75.0 mg/kg/injection, schedule: Q01DX001 (ip), vehicle: steriod suspending solution 96 % of control | dose: 150.0 mg/kg/injection, schedule: Q01DX001 (ip), vehicle: steriod suspending solution 100 % of control | dose: 300.0 mg/kg/injection, schedule: Q01DX001 (ip), vehicle: steriod suspending solution 93 % of control

O=[N+]([O-])c1ccc2c(c1)N(CCCN1CCN(CCO)CC1)c1ccccc1S2
inactive: dose: 12.5 mg/kg/injection, schedule: Q04DX003 (ip), vehicle: saline 111 % of control | dose: 25.0 mg/kg/injection, schedule: Q04DX003 (ip), vehicle: saline 122 % of control

CC(=O)Oc1ccc(OC(C)=O)c([N+](=O)[O-])c1
inactive: [3] 103 % of control | [4] 102 % of control | [5] 103 % of control

O=Cc1[nH]c(=S)[nH]c(=O)c1Cc1ccc2ccccc2c1
inactive: dose: 100.0 mg/kg/injection, schedule: Q01DX001 (ip), vehicle: saline with Tween-80 104 % of control | dose: 200.0 mg/kg/injection, schedule: Q01DX001 (ip), vehicle: saline with Tween-80 104 % of control

S=c1c2ccccc2nc2n1CCS2
inactive: [6] 92 % of control | [7] 87 % of control

C[N+](C)(C)Cc1c(CC(O)(c2ccccc2)c2ccccc2)ccc2ccccc12
inactive: dose: 50.0 mg/kg/injection, schedule: Q01DX001 (ip), vehicle: carboxymethylcellulose (CMC) 102 % of control | dose: 100.0 mg/kg/injection, schedule: Q01DX001 (ip), vehicle: carboxymethylcellulose (CMC) 94 % of control

CCCCOP(=O)(OCCCC)[O][Pb]([CH2]C)([CH2]C)[CH2]C
inactive: dose: 3.13 mg/kg/injection, schedule: Q01DX009 (ip), vehicle: saline with Tween-80 101 % of control | dose: 6.25 mg/kg/injection, schedule: Q01DX009 (ip), vehicle: saline with Tween-80 91 % of control

Cc1ccc(S(=O)(=O)OCC2C3CCC(C3=O)C2COS(=O)(=O)c2ccc(C)cc2)cc1 (stereo unspecified)
inactive: dose: 50.0 mg/kg/injection, schedule: Q04DX003 (ip), vehicle: saline with Tween-80 98 % of control | [8] 96 % of control and 106 % of control | [9] 98 % of control | [10] 86 % of control

O=c1[nH]c2ccc(Br)cc2cc1Br
inactive: [3] 97 % of control | [4] 97 % of control | [5] 97 % of control

CCN(CC)Cc1ccccc1COC(=O)c1ccc(Cl)cc1
inactive: [11] 96 % of control | [12] 101 % of control | [13] 88 % of control

C(=P(c1ccccc1)(c1ccccc1)c1ccccc1)[P+](c1ccccc1)(c1ccccc1)c1ccccc1.[Cl][Fe]([Cl])([Cl])[Br]
inactive: dose: 0.39 mg/kg/injection, schedule: Q01DX009 (ip), vehicle: Klucel (hydroxypropylcellulose) (HPC) 119 % of control | dose: 0.78 mg/kg/injection, schedule: Q01DX009 (ip), vehicle: Klucel (hydroxypropylcellulose) (HPC) 112 % of control | dose: 1.56 mg/kg/injection, schedule: Q01DX009 (ip), vehicle: Klucel (hydroxypropylcellulose) (HPC) 97 % of control and 102 % of control

O=C(Cl)Oc1cccc2ccccc12
inactive: dose: 50.0 mg/kg/injection, schedule: Q01DX001 (ip), vehicle: saline 108 % of control | [3] 113 % of control | [4] 104 % of control | [5] 98 % of control

Cc1ccc(S(=O)(=O)Cl)c(Cl)c1
inactive: dose: 50.0 mg/kg/injection, schedule: Q01DX009 (ip), vehicle: saline with Tween-80 92 % of control | [14] 94 % of control | [6] 91 % of control

COC1=CC23CCCN2CCc2cc4c(cc2C3C1O)OCO4 (stereo unspecified)
inactive: dose: 25.0 mg/kg/injection, schedule: Q01DX009 (ip), vehicle: saline 93 % of control | dose: 50.0 mg/kg/injection, schedule: Q01DX009 (ip), vehicle: saline 103 % of control | dose: 55.0 mg/kg/injection, schedule: Q01DX009 (ip), vehicle: saline 98 % of control | dose: 100.0 mg/kg/injection, schedule: Q01DX009 (ip), vehicle: saline 117 % of control | dose: 110.0 mg/kg/injection, schedule: Q01DX009 (ip), vehicle: saline 107 % of control | dose: 220.0 mg/kg/injection, schedule: Q01DX009 (ip), vehicle: saline 102 % of control

COc1ccc([N+](=O)[O-])cc1NC(=O)Nc1ccc(S(N)(=O)=O)cc1
inactive: [15] 101 % of control | [16] 92 % of control | dose: 400.0 mg/kg/injection, schedule: Q01DX009 (ip), vehicle: Klucel (hydroxypropylcellulose) (HPC) 94 % of control

CCCCCCCCCCCCCCCCOC(=O)C[n+]1ccc(C(N)=O)cc1
inactive: dose: 100.0 mg/kg/injection, schedule: Q04DX003 (ip), vehicle: acetone 97 % of control | dose: 200.0 mg/kg/injection, schedule: Q04DX003 (ip), vehicle: acetone 90 % of control

O=C(NOC(=O)c1ccccc1)c1ccccc1
inactive: [1] 97 % of control | [2] 97 % of control | [11] 97 % of control | [8] 103 % of control | [9] 91 % of control | [10] 101 % of control

CCC[CH2][Sn]([Cl])([CH2]CCC)[S]C(=S)NCCNC(=S)[S][Sn]([Cl])([CH2]CCC)[CH2]CCC
inactive: dose: 6.0 mg/kg/injection, schedule: Q04DX002 (ip), vehicle: other 98 % of control | dose: 12.0 mg/kg/injection, schedule: Q04DX002 (ip), vehicle: other 117 % of control | dose: 25.0 mg/kg/injection, schedule: Q04DX002 (ip), vehicle: other 102 % of control

CC1NC(=O)NC(=O)C1CCSCCC1C(=O)NC(=O)NC1C (stereo unspecified)
inactive: [3] 96 % of control | [4] 109 % of control | [5] 104 % of control

O=C(O)c1c[nH]c2c(ccc3ccccc32)c1=O
inactive: [11] 103 % of control | [12] 122 % of control | [13] 92 % of control

O=C(OC1c2ccccc2-c2ccccc21)c1cc([N+](=O)[O-])cc([N+](=O)[O-])c1
inactive: dose: 100.0 mg/kg/injection, schedule: Q04DX002 (ip), vehicle: saline 97 % of control | dose: 200.0 mg/kg/injection, schedule: Q04DX002 (ip), vehicle: saline 97 % of control | dose: 400.0 mg/kg/injection, schedule: Q04DX002 (ip), vehicle: saline 90 % of control

C=C(Br)CN(CCCC)C(C)=O
inactive: [15] 100 % of control | dose: 100.0 mg/kg/injection, schedule: Q04DX003 (ip), vehicle: Klucel (hydroxypropylcellulose) (HPC) 103 % of control | [16] 108 % of control | dose: 200.0 mg/kg/injection, schedule: Q04DX003 (ip), vehicle: Klucel (hydroxypropylcellulose) (HPC) 100 % of control and 92 % of control

O=C(/C=C\c1ccc(Cl)cc1)c1ccccc1
inactive: [14] 91 % of control | [11] 89 % of control | dose: 100.0 mg/kg/injection, schedule: Q04DX002 (ip), vehicle: gum acacia 98 % of control | [6] 91 % of control | [12] 96 % of control | dose: 200.0 mg/kg/injection, schedule: Q04DX002 (ip), vehicle: gum acacia 95 % of control | [7] 86 % of control | [13] 96 % of control | dose: 400.0 mg/kg/injection, schedule: Q04DX002 (ip), vehicle: gum acacia 91 % of control
